How the values were obtained:
[1] = system: ydgR, fepA, ompF deletion mutants of E. coli; assay type: cell-based; details: compared with wild-type E. coli
[2] = system: esterase (bioH, yjfP, frsA, ybfF, yfbB, ypfH, yeiG or yqiA) deletion mutants of E. coli; test: Antibacterial activity against esterase deletion mutants of E. coli; assay type: cell-based; details: eight single esterase gene deletion mutants
E. coli = test: Antibacterial activity before and after treatment with porcine liver esterase; assay type: cell-based; details: [PLE] = 1 U/mL
[3] = Static light scattering before and after addition of PLE; assay type: physicochemical; details: compound 200 μM, [PLE] = 1 U/mL, 24 h
[4] = E. coli (K-12) lysate 0.1 U/mL, compound 200 μM, lysate activities normalized
[5] = Serum stability in human serum; details: human serum (from human male AB plasma), 200 μM, 37 °C, LC-MS
E. coli (K-12) = test: Antibacterial activity; assay type: cell-based; details: minimum inhibitory concentration, wild type E. coli (K-12)
HS-5 cells = details: 24 h; CL, CLsu and conjugates 20 μM; Cipro, TMP, TEL 0.5 μM
Water solubility = assay type: physicochemical; details: in words only

MIC (E. coli (K-12))	SMILES	effect of deletion of ydgR, fepA or ompF on bacterial viability under treatment [1]	reduction of antibacterial activity by deletion of a cytoplasmic esterase [2]	change of inhibitory efficacy on addition of exogenous PLE (E. coli)	intensity of static light scattering signal after addition of PLE [3]	apparent first-order rate constant of hydrolysis [4]	further results
–	O=C(O)CNC(=O)[C@@H](CO)NC(=O)CCC(=O)OC[C@@H](NC(=O)C(Cl)Cl)[C@H](O)c1ccc([N+](=O)[O-])cc1 [Compound 1d]	hardly rescues the bacteria	~10%	hardly changes the inhibitory efficacy	increase drastically	1.267 h⁻¹	–
–	O=C(CCC(=O)OC[C@@H](NC(=O)C(Cl)Cl)[C@H](O)c1ccc([N+](=O)[O-])cc1)NCC(=O)N[C@H](CO)C(=O)O [Compound 1c]	hardly rescues the bacteria	about 20%	hardly changes the inhibitory efficacy	increase drastically	3.763 h⁻¹	time to complete hydrolysis [5]: ≤ 2 h
> 200 µM	O=C(O)CC[C@@H](NC(=O)[C@@H](CCC(=O)O)NC(=O)CCC(=O)OC[C@@H](NC(=O)C(Cl)Cl)[C@H](O)c1ccc([N+](=O)[O-])cc1)C(=O)O [Compound 2g]	–	–	–	–	–	–
> 200 µM	O=C(O)C[C@@H](NC(=O)[C@@H](CC(=O)O)NC(=O)CCC(=O)OC[C@@H](NC(=O)C(Cl)Cl)[C@H](O)c1ccc([N+](=O)[O-])cc1)C(=O)O [Compound 2h]	–	–	–	–	–	–
–	CC[C@H]1OC(=O)[C@H](C)C(=O)[C@H](C)[C@@H](O[C@@H]2O[C@H](C)C[C@H](N(C)C)[C@H]2O)[C@](C)(OC)C[C@@H](C)C(=O)[C@H](C)[C@H]2N(CCCCn3cnc(-c4cccnc4)c3)C(=O)O[C@]12C [telithromycin]	–	–	–	–	–	cytotoxicity against HS-5 cells (HS-5 cells): relatively low cytotoxicity
>200 µM	COC(=O)CCC(=O)OC[C@@H](NC(=O)C(Cl)Cl)[C@H](O)c1ccc([N+](=O)[O-])cc1 [Compound 4b]	–	–	–	–	–	water solubility (Water solubility): water-insoluble
–	NCCCC[C@@H](NC(=O)[C@@H](CCCCN)NC(=O)CCC(=O)OC[C@@H](NC(=O)C(Cl)Cl)[C@H](O)c1ccc([N+](=O)[O-])cc1)C(=O)O [Compound 2b]	hardly rescues the bacteria	about 20%	hardly changes the inhibitory efficacy	increase drastically	0.317 h⁻¹	–
–	NCCCC[C@H](NC(=O)[C@H](CCCCN)NC(=O)CCC(=O)OC[C@@H](NC(=O)C(Cl)Cl)[C@H](O)c1ccc([N+](=O)[O-])cc1)C(=O)O [Compound 2c]	hardly rescues the bacteria	about 20%	hardly changes the inhibitory efficacy	increase drastically	0.310 h⁻¹	–
> 200 µM	C[C@@H](NC(=O)CCC(=O)OC[C@@H](NC(=O)C(Cl)Cl)[C@H](O)c1ccc([N+](=O)[O-])cc1)C(=O)O [Compound 4a]	–	–	–	–	–	–
–	O=C(O)CCC(=O)OC[C@@H](NC(=O)C(Cl)Cl)[C@H](O)c1ccc([N+](=O)[O-])cc1 [CLsu, chloramphenicol succinate, reference compound]	–	–	–	–	–	cytotoxicity against HS-5 cells (HS-5 cells): lower cytotoxicity than CL; conversion to CL after 24 h ([5]; 24 h): less than 15%

From paper PMC6902879 (Journal of medicinal chemistry, 2019)
